Source: patent USRE39616E1, “Aminoindan derivatives” (priority 1996, dated 2007)
Like-named read-outs stand apart in the source and are kept apart here.

How the values were obtained:
MAO-A [1] = molecular target: T1, MAO-A (Mus musculus, UniProt Q64133); assay: Inhibition of MAO activity ex vivo (brain); format: in vivo, mice; details: mice, brain tissue
T1 construct: from tissue; host or cells: mouse brain
T1 sequence (Q64133 1-526): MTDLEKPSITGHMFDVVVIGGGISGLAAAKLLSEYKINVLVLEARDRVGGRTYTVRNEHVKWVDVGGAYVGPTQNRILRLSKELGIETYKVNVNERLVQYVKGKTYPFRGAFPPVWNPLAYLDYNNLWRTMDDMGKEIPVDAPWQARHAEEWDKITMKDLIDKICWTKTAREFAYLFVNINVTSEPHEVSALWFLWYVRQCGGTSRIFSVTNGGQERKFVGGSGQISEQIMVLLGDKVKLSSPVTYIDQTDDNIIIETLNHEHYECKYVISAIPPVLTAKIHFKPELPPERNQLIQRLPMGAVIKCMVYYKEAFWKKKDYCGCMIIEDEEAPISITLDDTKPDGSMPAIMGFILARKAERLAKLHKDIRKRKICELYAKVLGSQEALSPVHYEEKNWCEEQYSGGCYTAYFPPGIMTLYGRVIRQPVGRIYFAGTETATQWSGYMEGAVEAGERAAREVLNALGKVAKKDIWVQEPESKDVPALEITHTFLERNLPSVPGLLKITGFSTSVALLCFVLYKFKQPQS
Procedure: (§1) Substrate concentrations used were 50 μM (PEA) and 1 mM (5-HT).
(§2) Male Sabra mice, weighing 45-50 g were injected with test compound solutions (prepared in 0.9% saline). Each dose was administered to two or three mice. The mice were sacrificed two hours after drug administration or at a time corresponding to the peak AChE inhibition time (see Table 11). The brain and liver were rapidly dissected and stored in appropriate vials on ice. The tissues were weighed, diluted to ½ in sucrose 0.3M and stored at −20° C. before performance of the MAO assay described above. The results given in Table 11 relate to measurements made on brain tissue only.

MAO-B [2] = molecular target: T2, MAO-B (Mus musculus, UniProt Q8BW75); assay: Inhibition of MAO activity ex vivo (brain); format: in vivo, mice; details: mice, brain tissue
T2 construct: from tissue; host or cells: mouse brain
T2 sequence (Q8BW75 1-520): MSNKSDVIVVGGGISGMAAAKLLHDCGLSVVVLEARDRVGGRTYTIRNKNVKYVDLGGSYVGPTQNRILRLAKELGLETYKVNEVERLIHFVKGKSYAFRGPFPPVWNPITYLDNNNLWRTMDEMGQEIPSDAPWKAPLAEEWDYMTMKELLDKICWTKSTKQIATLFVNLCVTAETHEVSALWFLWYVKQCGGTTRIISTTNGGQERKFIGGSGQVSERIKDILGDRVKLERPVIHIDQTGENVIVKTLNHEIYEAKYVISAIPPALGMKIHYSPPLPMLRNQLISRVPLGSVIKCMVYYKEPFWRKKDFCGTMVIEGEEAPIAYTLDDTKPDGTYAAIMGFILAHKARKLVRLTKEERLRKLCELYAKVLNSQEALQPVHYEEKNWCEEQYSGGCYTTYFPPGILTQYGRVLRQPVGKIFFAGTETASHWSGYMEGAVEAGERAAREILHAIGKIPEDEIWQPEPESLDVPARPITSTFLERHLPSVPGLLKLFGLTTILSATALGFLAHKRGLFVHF
Procedure: as §1, §2

whole brain AChE = molecular target: T3, whole brain AChE (Mus musculus, UniProt P21836); details: for AChE Inhibition Ex vivo ED50 (AC): mice, whole brain, at peak of activity; for AChE Inhibition Time to peak activity t / AChE Inhibition Time to return to 50% of peak t: mouse, in vivo
T3 sequence (P21836 32-614): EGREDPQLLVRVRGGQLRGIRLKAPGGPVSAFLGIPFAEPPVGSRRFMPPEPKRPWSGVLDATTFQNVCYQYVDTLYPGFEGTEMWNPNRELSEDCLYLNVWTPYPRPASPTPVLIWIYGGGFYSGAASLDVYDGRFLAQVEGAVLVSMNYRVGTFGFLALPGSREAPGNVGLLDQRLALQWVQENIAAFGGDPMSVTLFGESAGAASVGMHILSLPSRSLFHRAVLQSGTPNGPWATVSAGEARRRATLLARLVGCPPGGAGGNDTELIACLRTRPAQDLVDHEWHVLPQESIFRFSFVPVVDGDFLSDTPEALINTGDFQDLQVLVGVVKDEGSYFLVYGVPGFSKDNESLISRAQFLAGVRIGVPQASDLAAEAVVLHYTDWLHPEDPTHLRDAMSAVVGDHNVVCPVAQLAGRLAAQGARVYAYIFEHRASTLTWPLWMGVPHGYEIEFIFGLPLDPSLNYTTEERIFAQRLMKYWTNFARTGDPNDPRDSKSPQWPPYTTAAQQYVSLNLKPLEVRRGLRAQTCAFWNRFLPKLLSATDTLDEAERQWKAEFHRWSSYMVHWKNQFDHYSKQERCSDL

MAO-A [3] = molecular target: T4, MAO-A (Rattus norvegicus, UniProt P21396); assay: Inhibition of MAO activity in vitro, 5-HT as substrate; format: biochemical; design: The MAO enzyme source was a homogenate of rat brain in 0.3M sucrose; from tissue; host or cells: rat brain homogenate, 600 g supernatant; details: 5-HT substrate
T4 sequence (P21396 1-526): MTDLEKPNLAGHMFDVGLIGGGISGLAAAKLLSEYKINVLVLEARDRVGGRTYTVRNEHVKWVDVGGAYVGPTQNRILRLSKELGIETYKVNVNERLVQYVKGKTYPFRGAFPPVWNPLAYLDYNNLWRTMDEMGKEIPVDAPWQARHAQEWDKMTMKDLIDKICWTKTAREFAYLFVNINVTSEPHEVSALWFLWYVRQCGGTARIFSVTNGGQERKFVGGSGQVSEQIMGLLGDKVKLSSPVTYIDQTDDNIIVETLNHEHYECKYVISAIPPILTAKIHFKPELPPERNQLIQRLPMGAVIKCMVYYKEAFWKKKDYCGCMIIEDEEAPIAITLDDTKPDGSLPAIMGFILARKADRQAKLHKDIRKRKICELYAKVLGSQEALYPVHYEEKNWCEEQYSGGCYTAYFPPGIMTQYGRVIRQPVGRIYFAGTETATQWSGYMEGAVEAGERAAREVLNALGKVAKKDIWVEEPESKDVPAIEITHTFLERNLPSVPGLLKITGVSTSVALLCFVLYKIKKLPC
Procedure: as §1

MAO-B [4] = molecular target: T5, MAO-B (Rattus norvegicus, UniProt P19643); assay: Inhibition of MAO activity in vitro, PEA as substrate; format: biochemical; design: The MAO enzyme source was a homogenate of rat brain in 0.3M sucrose; from tissue; host or cells: rat brain homogenate, 600 g supernatant
T5 sequence (P19643 1-520): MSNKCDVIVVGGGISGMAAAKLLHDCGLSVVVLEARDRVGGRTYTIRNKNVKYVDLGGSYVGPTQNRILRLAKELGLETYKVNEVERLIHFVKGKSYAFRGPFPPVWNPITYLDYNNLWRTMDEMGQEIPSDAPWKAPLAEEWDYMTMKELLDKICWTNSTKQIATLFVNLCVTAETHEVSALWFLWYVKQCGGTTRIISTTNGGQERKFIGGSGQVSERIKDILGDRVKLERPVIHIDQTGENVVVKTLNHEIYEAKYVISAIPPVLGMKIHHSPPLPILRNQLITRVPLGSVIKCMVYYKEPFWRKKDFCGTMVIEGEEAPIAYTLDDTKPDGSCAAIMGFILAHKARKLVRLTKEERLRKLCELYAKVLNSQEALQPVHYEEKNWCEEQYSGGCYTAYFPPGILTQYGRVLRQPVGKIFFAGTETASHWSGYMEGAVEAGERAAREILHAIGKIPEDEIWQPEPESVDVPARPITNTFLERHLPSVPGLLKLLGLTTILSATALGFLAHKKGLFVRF
Procedure: as §1

[5] = molecular target: T6, Human erythrocyte acetylcholinesterase (Homo sapiens, UniProt P22303); assay: biochemical; format: biochemical
T6 construct: Human erythrocyte acetylcholinesterase (type XIII, Sigma Israel); purchased Sigma Israel type XIII; host or cells: human erythrocytes
Procedure: Human erythrocyte acetylcholinesterase (type XIII, Sigma Israel), was prepared in a stock solution of 1 U/ml, containing Triton (1%) and bovine serum albumin (0.05%) in phosphate buffer (pH 8). The enzyme (0.05U) was incubated with 3-5 different concentrations of test compound (in triplicate) for periods of from 15 to 60 minutes at 37° C. […] The percentage inhibition of AChE by each concentration of drug is calculated by comparison with that of enzyme in the absence of drug.

[6] = mice, within 6 hours after administration
[7] = MAO-A Inhibition In vitro IC50, rat brain homogenate
[8] = MAO-B Inhibition In vitro IC50, rat brain homogenate
[9] = rat brain homogenate, read-out: MAO-A Inhibition In vitro IC50
[10] = rat brain homogenate, read-out: MAO-B Inhibition In vitro IC50

T6 sequence (P22303 32-617 isoform P22303-2 limits assumed): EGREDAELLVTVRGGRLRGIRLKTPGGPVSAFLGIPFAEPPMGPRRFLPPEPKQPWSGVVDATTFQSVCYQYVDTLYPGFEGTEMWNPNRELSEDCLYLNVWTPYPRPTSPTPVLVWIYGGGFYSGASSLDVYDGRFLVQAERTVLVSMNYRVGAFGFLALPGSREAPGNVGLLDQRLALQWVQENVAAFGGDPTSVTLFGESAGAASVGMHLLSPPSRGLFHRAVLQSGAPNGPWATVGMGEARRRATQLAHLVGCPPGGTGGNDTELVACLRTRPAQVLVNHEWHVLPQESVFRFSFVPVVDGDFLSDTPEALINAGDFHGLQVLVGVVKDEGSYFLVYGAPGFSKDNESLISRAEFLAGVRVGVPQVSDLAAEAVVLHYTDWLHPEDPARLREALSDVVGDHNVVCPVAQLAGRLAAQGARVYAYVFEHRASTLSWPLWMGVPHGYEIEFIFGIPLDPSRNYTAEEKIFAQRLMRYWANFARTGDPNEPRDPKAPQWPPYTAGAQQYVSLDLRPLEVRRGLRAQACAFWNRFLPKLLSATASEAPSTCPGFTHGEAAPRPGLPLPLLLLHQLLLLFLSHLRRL
Procedure for mice: Therapeutic Ratio was calculated as LD50 divided by ED50 of ex vivo acetylcholine esterase inhibition.

| SMILES | MAO-A Inhibition Ex vivo ED50 (MAO-A [1]) | MAO-B Inhibition Ex vivo ED50 (MAO-B [2]) | AChE Inhibition Ex vivo ED50 (AC) (whole brain AChE) | AChE Inhibition Time to peak activity t (whole brain AChE) | AChE Inhibition Time to return to 50% of peak t (whole brain AChE) | Acute Toxicity LD50 (LD) (mice; [6]) | IC50 (MAO-A [3]; [7]) | IC50 (MAO-B [4]; [8]) | IC50 (MAO-A [3]; [9]) | Acute Toxicity LD50 (LD) (mice; mouse, in vivo) | IC50 ([5]; AChE Inhibition In vitro IC50) | Therapeutic Ratio LD/AC (mice; mouse, in vivo) | IC50 (MAO-B [4]; [10]) | IC50 ([5]; read-out: AChE Inhibition In vitro IC50) |
| --- | --- | --- | --- | --- | --- | --- | --- | --- | --- | --- | --- | --- | --- | --- |
| CCN(C)C(=O)Oc1cccc2c1C(N)CC2 (stereo not shown) [Compound 5] | >>277 μmoles/kg | >>277 μmoles/kg | 85.0 µmol/kg | 60 min | >120 min | 840 µmol/kg |  |  |  |  |  |  |  |  |
| CCNC1CCc2ccc(OC(=O)N(C)C)cc21 (stereo not shown) [Compound 7] |  |  |  |  |  |  | 600 µM | > 1000 µM |  |  |  |  |  |  |
| CNC1CCc2ccc(OC(=O)N(C)C)cc21 (stereo not shown) [Compound 8] | >>50 μmoles/kg | >>50 μmoles/kg | 10.0 µmol/kg | 15 to 30 min | >60 min | 87 µmol/kg |  |  | 50 µM |  |  |  |  |  |
| C#CCNC1CCc2ccc(OC(=O)N(C)C)cc21 (stereo not shown) [Compound 23] |  |  | 22.4 µmol/kg |  | 70 min |  | 800 µM | 600 µM |  | 255 µmol/kg |  |  |  |  |
| C#CCN(CC)C1CCc2ccc(OC(=O)N(C)C)cc21 (stereo not shown) [Compound 31] | >100 µmol/kg | >100 µmol/kg | 110 µmol/kg |  |  |  | > 1000 µM | > 1000 µM |  |  | 10 µM |  |  |  |
| C#CCNC1CCc2cccc(OC(=O)N(C)CC)c21 (stereo not shown) [Compound 33] | >>1200 μmoles/kg | 1000 µmol/kg |  |  |  |  |  |  |  |  | 540 µM |  |  |  |
| C#CCNC1CCc2c(OC(=O)N(C)C)cccc21 (stereo not shown) [Compound 34] |  |  | 0.65 µmol/kg | 30 min |  |  | 0.5 µM | 100 µM |  | 3.7 µmol/kg | 0.046 µM | 5.7 |  |  |
| C#CCNC1CCc2c(OC(=O)N(C)CC)cccc21 (stereo not shown) [Compound 35] |  |  | 10 µmol/kg | 60 min |  |  | < 1 µM | 100 µM |  | 33 µmol/kg | 2.2 µM | 3.3 |  |  |
| C#CCNC1CCc2ccc(OC(=O)N(C)C3CCCCC3)cc21 (stereo not shown) [Compound 38] | >400 µmol/kg | >400 µmol/kg | >1000 µmol/kg |  |  |  |  |  | 170 µM |  | 33 µM |  | 10 µM |  |
| C#CCNC1CCc2ccc(OC(=O)NCCC)cc21 (stereo not shown) [Compound 57] |  |  | 70 µmol/kg |  |  |  | 89 µM |  |  |  |  |  | 25 µM | 2.4 µM |
| C#CCNC1CCc2ccc(OC(=O)N(C)c3ccc(OC)cc3)cc21 (stereo not shown) [Compound 61] | >100 µmol/kg | >100 µmol/kg | 47 µmol/kg |  |  |  |  |  | 700 µM |  | 0.75 µM |  | 500 µM |  |
| C#CCNC1CCc2ccc(OC(=O)N(C)CCCC)cc21 (stereo not shown) [Compound 81] | >>100 μmoles/kg | >>100 μmoles/kg | 40 µmol/kg | 90 min | >120 min |  |  |  |  | 920 µmol/kg | 11.5 µM | 23 |  |  |
